Measurements as given in PubChem BioAssay (NCI).
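All cell lines were grown in 96-well plates and treated with compound for 48 hours. TGI: total growth inhibition.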

How the values were obtained:
Assay in all cases: DTP human tumour cell line panel, 48 h
[1] = system: NCI/ADR-RES ovarian
[2] = system: RXF 393 renal
[3] = system: HT29 colon
[4] = system: SNB-75 CNS
[5] = system: MDA-MB-231 breast
[6] = system: U251 CNS
[7] = system: HL-60(TB) leukemia
[8] = system: SR leukemia
[9] = system: MDA-N
[10] = system: TK-10 renal
[11] = system: SW-620 colon
[12] = system: K-562 leukemia
[13] = system: HCT-15 colon
[14] = system: UACC-257 melanoma
[15] = system: CAKI-1 renal
[16] = system: A549 NSCLC
[17] = system: KM12 colon
[18] = system: OVCAR-8 ovarian
[19] = system: MCF7 breast
[20] = system: NCI-H23 lung
[21] = system: MOLT-4 leukemia
[22] = system: UO-31 renal
[23] = system: HOP-62 NSCLC
[24] = system: 786-0 renal
[25] = system: SK-MEL-5 melanoma
[26] = system: LOX IMVI melanoma
[27] = system: SF-295 CNS
[28] = system: CCRF-CEM leukemia
[29] = system: OVCAR-3 ovarian
[30] = system: UACC-62 melanoma
[31] = system: M14 melanoma
[32] = system: SNB-19 CNS
[33] = system: T-47D breast
[34] = system: MDA-MB-435
[35] = system: PC-3 prostate
[36] = system: SN12C renal
[37] = system: IGROV1 ovarian
[38] = system: OVCAR-4 ovarian
[39] = system: ACHN renal
[40] = system: EKVX NSCLC
[41] = system: A498 renal
[42] = system: DU-145 prostate
[43] = system: SK-OV-3 ovarian
[44] = system: MALME-3M melanoma
[45] = system: BT-549 breast
[46] = system: HS 578T breast
[47] = system: HCT-116 colon
[48] = system: SK-MEL-2 melanoma
[49] = system: NCI-H226 lung
[50] = system: RPMI-8226 leukemia
[51] = system: HCC-2998 colon
[52] = system: SF-268 CNS
[53] = system: COLO 205 colon
[54] = system: NCI-H522 lung
[55] = system: OVCAR-5 ovarian
[56] = system: SK-MEL-28 melanoma
[57] = system: SF-539 CNS
[58] = system: HOP-92 NSCLC
[59] = system: NCI-H460 lung

Q: How did the TGI [1] turn out when `CS(=O)(=O)c1nc(-c2cc3c(c(S(C)(=O)=O)n2)CCCC3)cc2c1CCCC2` was run?
A: The TGI was greater than 100 µM.

Q: And the TGI [2]?
A: Its TGI is greater than 74.9 µM.

Q: What about the TGI [3] of the same compound?
A: The TGI was greater than 100 µM.

Q: And the TGI [4]?
A: Its TGI is 25.3 µM.

Q: And the TGI [5]?
A: The TGI was greater than 100 µM.

Q: What about the TGI [6] of the same compound?
A: The TGI was greater than 100 µM.

Q: And the TGI [7]?
A: The TGI was greater than 100 µM.

Q: And the TGI [8]?
A: Its TGI is greater than 100 µM.

Q: What about the TGI [9] of the same compound?
A: The TGI was greater than 100 µM.

Q: What about the TGI [10] of the same compound?
A: The TGI was greater than 100 µM.

Q: What about the TGI [11] of the same compound?
A: The TGI was greater than 100 µM.

Q: And the TGI [12]?
A: The TGI was greater than 100 µM.

Q: And the TGI [13]?
A: Its TGI is greater than 100 µM.

Q: And the TGI [14]?
A: Its TGI is greater than 100 µM.

Q: What about the TGI [15] of the same compound?
A: Its TGI is greater than 59.1 µM.

Q: And the TGI [16]?
A: The TGI was greater than 100 µM.

Q: And the TGI [17]?
A: Its TGI is greater than 100 µM.

Q: What about the TGI [18] of the same compound?
A: Its TGI is greater than 69.5 µM.

Q: What about the TGI [19] of the same compound?
A: Its TGI is greater than 100 µM.

Q: What about the TGI [20] of the same compound?
A: Its TGI is greater than 100 µM.

Q: And the TGI [21]?
A: Its TGI is greater than 100 µM.

Q: And the TGI [22]?
A: Its TGI is 0.111 µM.

Q: And the TGI [23]?
A: The TGI was greater than 57.7 µM.

Q: What about the TGI [24] of the same compound?
A: The TGI was greater than 100 µM.

Q: And the TGI [25]?
A: Its TGI is greater than 100 µM.

Q: And the TGI [26]?
A: Its TGI is greater than 100 µM.

Q: What about the TGI [27] of the same compound?
A: Its TGI is greater than 93.9 µM.

Q: What about the TGI [28] of the same compound?
A: The TGI was greater than 100 µM.

Q: What about the TGI [29] of the same compound?
A: The TGI was greater than 100 µM.

Q: And the TGI [30]?
A: The TGI was greater than 62.3 µM.

Q: And the TGI [31]?
A: Its TGI is greater than 100 µM.

Q: And the TGI [32]?
A: The TGI was greater than 100 µM.

Q: What about the TGI [33] of the same compound?
A: Its TGI is greater than 100 µM.

Q: And the TGI [34]?
A: The TGI was greater than 100 µM.

Q: What about the TGI [35] of the same compound?
A: The TGI was greater than 100 µM.

Q: What about the TGI [36] of the same compound?
A: The TGI was greater than 100 µM.

Q: What about the TGI [37] of the same compound?
A: The TGI was greater than 43.5 µM.

Q: What about the TGI [38] of the same compound?
A: The TGI was greater than 100 µM.

Q: And the TGI [39]?
A: The TGI was greater than 100 µM.

Q: And the TGI [40]?
A: Its TGI is greater than 100 µM.

Q: What about the TGI [41] of the same compound?
A: Its TGI is greater than 100 µM.

Q: And the TGI [42]?
A: The TGI was greater than 100 µM.

Q: And the TGI [43]?
A: Its TGI is greater than 64.7 µM.

Q: And the TGI [44]?
A: The TGI was greater than 100 µM.

Q: And the TGI [45]?
A: Its TGI is greater than 82.2 µM.

Q: What about the TGI [46] of the same compound?
A: Its TGI is greater than 33 µM.

Q: What about the TGI [47] of the same compound?
A: The TGI was greater than 100 µM.

Q: And the TGI [48]?
A: Its TGI is greater than 100 µM.

Q: And the TGI [49]?
A: The TGI was greater than 100 µM.

Q: And the TGI [50]?
A: Its TGI is greater than 100 µM.

Q: And the TGI [51]?
A: The TGI was greater than 100 µM.

Q: What about the TGI [52] of the same compound?
A: Its TGI is greater than 47.3 µM.

Q: What about the TGI [53] of the same compound?
A: The TGI was greater than 100 µM.

Q: What about the TGI [54] of the same compound?
A: The TGI was greater than 77.6 µM.

Q: And the TGI [55]?
A: Its TGI is greater than 100 µM.

Q: What about the TGI [56] of the same compound?
A: Its TGI is greater than 100 µM.

Q: And the TGI [57]?
A: Its TGI is greater than 100 µM.

Q: With `O=[N+]([O-])c1cc(CCl)ccc1CCl` as the compound, how does the TGI [1] read?
A: Its TGI is 8.84 µM.

Q: And the TGI [2]?
A: Its TGI is 1.65 µM.

Q: What about the TGI [3] of the same compound?
A: The TGI was 3.22 µM.

Q: And the TGI [4]?
A: Its TGI is 6.88 µM.

Q: And the TGI [5]?
A: Its TGI is 4.5 µM.

Q: What about the TGI [6] of the same compound?
A: Its TGI is 3.14 µM.

Q: What about the TGI [8] of the same compound?
A: Its TGI is 5.17 µM.

Q: And the TGI [9]?
A: Its TGI is 4.23 µM.

Q: And the TGI [10]?
A: Its TGI is 8.23 µM.

Q: And the TGI [11]?
A: The TGI was 4.54 µM.

Q: What about the TGI [12] of the same compound?
A: The TGI was 7.49 µM.

Q: And the TGI [13]?
A: Its TGI is 3.64 µM.

Q: And the TGI [14]?
A: The TGI was greater than 20.1 µM.

Q: And the TGI [15]?
A: The TGI was 2.76 µM.

Q: What about the TGI [16] of the same compound?
A: Its TGI is 16.9 µM.

Q: And the TGI [17]?
A: Its TGI is 3.25 µM.

Q: What about the TGI [18] of the same compound?
A: Its TGI is 7.17 µM.

Q: And the TGI [19]?
A: Its TGI is 3.28 µM.

Q: What about the TGI [20] of the same compound?
A: Its TGI is 5.1 µM.

Q: And the TGI [21]?
A: The TGI was 12.6 µM.

Q: And the TGI [22]?
A: Its TGI is 3.18 µM.

Q: And the TGI [23]?
A: Its TGI is 2.93 µM.

Q: What about the TGI [24] of the same compound?
A: The TGI was 3.34 µM.

Q: What about the TGI [25] of the same compound?
A: Its TGI is 11.5 µM.

Q: What about the TGI [26] of the same compound?
A: The TGI was 4.12 µM.

Q: What about the TGI [27] of the same compound?
A: Its TGI is 19.7 µM.

Q: And the TGI [28]?
A: Its TGI is 3.14 µM.

Q: And the TGI [29]?
A: Its TGI is 3.27 µM.

Q: And the TGI [30]?
A: The TGI was 11.4 µM.

Q: And the TGI [31]?
A: The TGI was 3.59 µM.

Q: And the TGI [32]?
A: Its TGI is 3.8 µM.

Q: What about the TGI [33] of the same compound?
A: The TGI was 1.03 µM.

Q: And the TGI [34]?
A: The TGI was 5.05 µM.

Q: What about the TGI [35] of the same compound?
A: The TGI was 3.08 µM.

Q: And the TGI [58]?
A: Its TGI is 3.37 µM.

Q: And the TGI [36]?
A: Its TGI is 2.97 µM.

Q: What about the TGI [37] of the same compound?
A: Its TGI is 2.92 µM.

Q: What about the TGI [38] of the same compound?
A: Its TGI is 3.22 µM.

Q: What about the TGI [39] of the same compound?
A: Its TGI is 3.09 µM.

Q: What about the TGI [40] of the same compound?
A: The TGI was 3.38 µM.

Q: And the TGI [41]?
A: The TGI was 16.1 µM.

Q: What about the TGI [42] of the same compound?
A: The TGI was 2.99 µM.

Q: And the TGI [43]?
A: The TGI was 26 µM.

Q: What about the TGI [44] of the same compound?
A: Its TGI is 3.51 µM.

Q: And the TGI [45]?
A: The TGI was 11.1 µM.

Q: And the TGI [59]?
A: The TGI was greater than 39.3 µM.

Q: And the TGI [46]?
A: Its TGI is 11.4 µM.

Q: What about the TGI [47] of the same compound?
A: Its TGI is 3.26 µM.

Q: What about the TGI [48] of the same compound?
A: Its TGI is 7.83 µM.

Q: What about the TGI [49] of the same compound?
A: The TGI was 11 µM.

Q: And the TGI [50]?
A: Its TGI is 3.91 µM.

Q: And the TGI [51]?
A: The TGI was 4.01 µM.

Q: And the TGI [52]?
A: Its TGI is 4.21 µM.

Q: And the TGI [53]?
A: Its TGI is 3.19 µM.

Q: What about the TGI [54] of the same compound?
A: The TGI was 3.98 µM.

Q: And the TGI [55]?
A: Its TGI is 6.18 µM.

Q: What about the TGI [56] of the same compound?
A: Its TGI is 5.01 µM.

Q: And the TGI [57]?
A: The TGI was 7.14 µM.
